The values below come from publication PMC8068036, “Synthesis of New Biscoumarin Derivatives, In Vitro Cholinesterase Inhibition, Molecular Modelling and Antiproliferative Effect in A549 Human Lung Carcinoma Cells” (International Journal of Molecular Sciences, 2021).

SMILES strings stand for the structures. Like-named read-outs stand apart in the source and are kept apart here.

Series [1] can be described thus: in vitro. Particulars: for Papp: PAMPA; for Papp / Pe ± S.E.M.: pH 7.4; for Pe ± S.E.M.: PAMPA-BBB; for CNS Predicted Availability: classification from PAMPA-BBB Pe. How it is done: The parallel artificial membrane permeability assay (PAMPA) is used as a non-cell-based in vitro assay to predict BBB penetration and is carried out in a coated 96-well membrane filter. In our assays, the filter membrane of the donor plate was coated with PBL (Polar Brain Lipid, Avanti, Denver, CO, USA) in dodecane (4 µL of 20 mg mL^−1 PBL in dodecane), and the acceptor well was filled with 300 µL of phosphate buffered saline (PBS) (pH 7.4; VA). The tested compounds were first dissolved in DMSO, and the resulting mixture was diluted with PBS (pH 7.4) to reach the final concentration (40–100 µM) in the donor well. […] Three hundred microliters of the donor solution (VD) were added to the donor wells, and the donor filter plate was carefully placed onto the acceptor plate to ensure that the coated membrane was “in contact” with both the donor solution and the acceptor buffer. The test compound diffused from the donor well through the polar brain lipid membrane (area = 0.28 cm^2) to the acceptor well. The concentration of the tested compound in both the donor and acceptor wells was assessed after 3, 4, 5, and 6 h of incubation, respectively, in quadruplicate using a UV plate reader Synergy HT (Biotek, Winooski, VT, USA) at the maximum absorption wavelength of each compound. Additionally, solutions at the theoretical equilibrium of the given compound (i.e., the theoretical concentration if the donor and acceptor compartment were simply combined) were also prepared.

Series [2] has as its system A549 cells. Description: MTT assay, A549. The settings on record: for Metabolic activity of A549 cells (in words): 10 to 100 μM, 24 and 48 h; for IC50: Homo sapiens. The series is classed as cell-based, human. Here is the method: (§1) Human lung carcinoma cell line A549 and CCD-18Co colon fibroblasts were purchased from the American Type Culture Collection (ATCC, Rockville, MD, USA). The A549 cells were cultured in a complete RPMI-1640 medium (Sigma-Aldrich, St. Louis, MO, USA), and CCD-18Co cells were cultured in an MEM medium (PAN-Biotech GmbH, Aidenbach, Germany). The media were supplemented with 10% fetal bovine serum (FBS; Biosera, Nuaille, France) and antibiotics (1% Antibiotic-Antimycotic 100× and 50 × 10^−3 g l^−1 gentamicin; Biosera) at 37 °C, 95% humidity, and 5% CO2.
(§2) Prior to the selected treatments, cells were seeded on 12-well μ-Chamber slides (ibidi GmbH, Martinsried, Germany) and 6 and/or 96-well plates (TPP, Trasadingen, Switzerland) and left to settle for 24 h. The biscoumarin derivative solutions (at concentrations ranging from 10–100 µM) were then added to cells for 24 or 48 h, and analysis was subsequently performed.
(§3) MTT assays were performed in order to evaluate changes in the metabolic activity of cells that had occurred as a consequence of treatment with the biscoumarin derivatives. A549 cells (15 × 10^3 cells/cm^2) and CCD-18Co ([…]) were seeded in 96-well microplates. The cells were treated for 24 and 48 h with different concentrations (10, 25, 35, 50, 65, 75, and 100 µM) of the derivatives. After the treatment, the MTT (3-(4,5-dimethylthiazol-2-yl)-2,5-diphenyltertrazolium bromide) solution in PBS (5 mg mL^−1) was added to each well. […]. The absorbance of formazan (λ = 584 nm) was measured using a BMG FLUOstar Optima spectrometer (BMG Labtech GmbH, Offenburg, Germany). The results were evaluated as percentages of the absorbance of the untreated control. Results are presented as the average percentage of cells from three independent experiments. IC50 values for the derivatives were extrapolated from a sigmoidal fit (dose–response curve) to the metabolic activity data using OriginPro 8.5.0 SR1 (OriginLab Corp., Northampton, MA, USA).

Series [3] concerns the target T1, hBChE (human plasma) (Homo sapiens, UniProt P06276).
T1 construct: Human plasma was used as a source of BChE; from tissue; host or cells: human plasma from heparinized blood
Description: biochemical. The series is classed as biochemical. Particulars: human plasma BChE, mean of at least three experiments; for IC50: read-out: IC50 ± S.E.M. hBChE. How it is done:
(§4) Human recombinant AChE (EC 3.1.1.7), 5,5′-dithiobis(2-nitrobenzoic acid) (Ellman′s reagent, DTNB), phosphate buffer (PB, 0.1 M, pH 7.4), and acetylthiocholine (ATC) and butyrylthiocholine (BTC), were purchased from Sigma-Aldrich, Prague, Czech Republic. Human plasma was used as a source of BChE and was prepared from heparinized human blood. The blood was centrifuged for 20 min (4 °C, 2300× g) on a Hettich Universal 320R centrifuge. The plasma was separated and stored at […]. Polystyrene Nunc 96-well microplates with a flat bottom shape (ThermoFisher Scientific, Waltham, MA, USA) were used for measuring purposes.
(§5) All of the assays were carried out in a 0.1 M phosphate buffer, pH 7.4. The assay medium (100 µL) consisted of 40 µL of 0.1 M phosphate buffer (pH 7.4), 20 µL of 0.01 M DTNB, 10 µL of the enzyme, and 20 µL of 0.01 M substrate ATC/BTC iodide solution).
(§6) The tested compounds were preincubated for 5 min prior to use. The reaction was initiated immediately upon addition of 20 µL of the substrate. […] Each concentration was assayed in triplicate. Software GraphPad Prism 5 (San Diego, CA, USA) was used in the evaluation of the statistical data.

Series [4] deals with T2, human recombinant AChE (Homo sapiens, UniProt P22303).
T2 construct: purchased Sigma-Aldrich, Prague, Czech Republic
Description: biochemical. The series is classed as biochemical. The settings on record: mean of at least three experiments; for IC50: read-out: IC50 ± S.E.M. hAChE. Here is the method: as §4, §5, §6

Series [5] has as its system A549 cells. As to the kind of experiment: Cell cycle analysis (flow cytometry, PI). Particulars: 35 and 65 µM, 24 h. In kind it is cell-based, human. How it is done: For flow cytometric analysis of the cell cycle distribution, floating and adherent cells were harvested together 24 h after treatment with the derivatives (35 and 65 µM), washed in cold PBS, fixed in cold 70% ethanol, and stored overnight at −20 °C. Prior to analysis, the cells were washed twice in PBS, resuspended in a staining solution (0.1% Triton X-100, 0.137 g L^−1 ribonuclease A and 0.02 g L^−1 propidium iodide—PI), and incubated in dark conditions at RT for 30 min. The DNA content was analyzed using a BD FACSCalibur flow cytometer (Becton Dickinson, San Jose, CA, USA) with a 488 nm argon-ion excitation laser, and fluorescence was detected using a 585/42 nm band-pass filter (FL-2). ModFit 3.0 software (Verity Software House, Topsham, ME, USA) was used to generate DNA content frequency histograms and to quantify the percentage of cells in the individual cell cycle phases. The results are presented as the average ratio of cells in the individual phase to all cells from three independent experiments.

Series [6] concerns CCD-18Co fibroblasts. As to the kind of experiment: MTT assay, CCD-18Co. Particulars: for IC50: Homo sapiens, CCD-18Co. In kind it is cell-based. Here is the method: as §1, §2, §3
Setting [7] is: A549, 24 h, read-out: IC50 A549 24 h.
Setting [8] is: A549, read-out: IC50 A549 48 h, 48 h.

T2 sequence (P22303 32-614): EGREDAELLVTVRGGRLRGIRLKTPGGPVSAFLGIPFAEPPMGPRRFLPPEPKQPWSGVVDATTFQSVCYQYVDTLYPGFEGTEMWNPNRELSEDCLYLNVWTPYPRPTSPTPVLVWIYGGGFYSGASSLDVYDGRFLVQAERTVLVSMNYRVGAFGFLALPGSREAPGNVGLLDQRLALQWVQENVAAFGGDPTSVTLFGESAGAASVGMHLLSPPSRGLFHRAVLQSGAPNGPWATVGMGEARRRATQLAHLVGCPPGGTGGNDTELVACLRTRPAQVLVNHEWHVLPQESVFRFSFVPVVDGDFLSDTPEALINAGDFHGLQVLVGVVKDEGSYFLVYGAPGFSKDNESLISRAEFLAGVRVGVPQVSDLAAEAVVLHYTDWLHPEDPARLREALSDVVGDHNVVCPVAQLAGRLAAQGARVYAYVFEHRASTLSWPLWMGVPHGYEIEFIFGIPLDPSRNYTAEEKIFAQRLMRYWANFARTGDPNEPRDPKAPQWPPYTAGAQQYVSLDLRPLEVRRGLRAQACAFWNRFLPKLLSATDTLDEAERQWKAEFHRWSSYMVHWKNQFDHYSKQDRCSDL
T1 sequence (P06276 29-602): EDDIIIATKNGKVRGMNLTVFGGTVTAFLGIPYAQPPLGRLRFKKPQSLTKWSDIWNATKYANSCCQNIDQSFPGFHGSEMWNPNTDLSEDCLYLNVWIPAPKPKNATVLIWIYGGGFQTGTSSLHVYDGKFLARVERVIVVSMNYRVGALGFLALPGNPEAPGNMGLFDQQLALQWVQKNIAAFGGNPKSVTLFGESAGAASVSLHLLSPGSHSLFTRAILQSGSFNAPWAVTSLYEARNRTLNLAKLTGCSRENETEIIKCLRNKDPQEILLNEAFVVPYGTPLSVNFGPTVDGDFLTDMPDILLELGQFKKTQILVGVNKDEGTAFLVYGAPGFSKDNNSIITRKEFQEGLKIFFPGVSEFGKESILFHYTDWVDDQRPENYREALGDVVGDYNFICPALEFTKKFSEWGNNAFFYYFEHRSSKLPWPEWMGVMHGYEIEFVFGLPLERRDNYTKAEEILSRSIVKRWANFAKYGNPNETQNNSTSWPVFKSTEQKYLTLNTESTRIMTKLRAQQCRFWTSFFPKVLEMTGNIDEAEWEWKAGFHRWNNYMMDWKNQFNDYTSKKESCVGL

On to `COC(=O)Cc1cc(=O)oc2cc(OCCCCCCN3CCN(CCNC(=O)Cc4cc(=O)oc5cc(O)ccc45)CC3)ccc12` [12c, Methyl 2-[7-({7-[4-(2-{[2-(7-hydroxy-2-oxo-2H-4-chromenyl)acetyl]amino}ethyl)piperazino]hexyl}oxy)-2-oxo-2H-4-chromenyl]acetate], for which, in series [1], the Papp came to 2.96 ± 0.73 ×10⁻⁶ cm/s. In addition, in series [1], the “Pe ± S.E.M.” value is given as 2.0–4.0 10^−6 cm s^−1. In series [1], the “CNS Predicted Availability” value is recorded as “CNS+/− (CNS +/−: BBB permeation uncertain with Pe (×10^−6 cm s^−1) from 4.0 to 2)”. Also, the “Metabolic activity of A549 cells (in words)” value in series [2] is “did not lose the ability to convert dye”. Besides, the IC50 in series [2] (setting [7]) is over 100 µM; in series [2] (setting [8]), over 100 µM; in series [3] it was over 500 µM; in series [4], 88.4 ± 12.6 µM. Also, the “Cell cycle distribution, G0/G1 phase (in words)” value in series [5] is recorded as “increased the accumulation of cell population in the G0/G1 phase”.

For the molecule `COC(=O)Cc1cc(=O)oc2cc(OCCCCCCCN3CCN(CCNC(=O)Cc4cc(=O)oc5cc(O)ccc45)CC3)ccc12` [12d], in series [1], the apparent permeability coefficient (Papp) came out at 2.11 ± 1.19 ×10⁻⁶ cm/s. In addition, the “Pe ± S.E.M.” value in series [1] is recorded as 2.0–4.0 10^−6 cm s^−1. Besides, the “CNS Predicted Availability” value in series [1] is “CNS+/− (CNS +/−: BBB permeation uncertain with Pe (×10^−6 cm s^−1) from 4.0 to 2)”. Also, the “Metabolic activity of A549 cells (in words)” value in series [2] is “significant decrease”. Moreover, the IC50 in series [2] (setting [7]) is 94 µM; in series [2] (setting [8]), 58 µM; in series [3], 49 µM; in series [4] it was 6.3 ± 0.4 µM; in series [6] (24 h, read-out: IC50 CCD-18Co 24 h), over 100 µM; in series [6] (read-out: IC50 CCD-18Co 48 h, 48 h) it was over 100 µM. Further, the IC50 in series [6] (time not stated, read-out: IC50 CCD-18Co) is over 100 µM. Besides, in series [5], the “Cell cycle distribution, G0/G1 phase (in words)” value is on record as “increase in the percentage of the cell population in the G0/G1 phase”. The “Metabolic activity of CCD-18Co cells (in words)” value in series [6] (24 or 48 h) is “significantly reduced metabolic activity only at a concentration of 100 μM”.

On to `Nc1c2c(nc3ccccc13)CCCC2` [Tacrine, tacrine, reference compound], for which the “CNS Predicted Availability” value in series [1] is listed as “CNS+ (CNS+: high BBB permeation predicted with Pe (×10^−6 cm s^−1) > 4.0)”.

In the case of `COC(=O)Cc1cc(=O)oc2cc(OCCCCN3CCN(CCNC(=O)Cc4cc(=O)oc5cc(O)ccc45)CC3)ccc12` [12b], the “CNS Predicted Availability” value in series [1] is recorded as “CNS− (CNS−: low BBB permeation predicted with Pe (×10^−6 cm s^−1) < 2.0)”. Also, the “Metabolic activity of A549 cells (in words)” value in series [2] is given as “did not lose the ability to convert dye”. For the same molecule, the IC50 in series [2] (setting [7]) was over 100 µM; in series [2] (setting [8]), over 100 µM; in series [3], over 500 µM; in series [4] it was over 500 µM. Besides, the “IC50 ± S.E.M. hBChE” value in series [3] is recorded as “did not show inhibitory activity”. Also, the “IC50 ± S.E.M. hAChE” value in series [4] is recorded as “did not show inhibitory activity”.

For the molecule `CNC(=C[N+](=O)[O-])NCCSCc1ccc(CN(C)C)o1` [Ranitidine, reference compound], the “CNS Predicted Availability” value in series [1] is “CNS− (CNS−: low BBB permeation predicted with Pe (×10^−6 cm s^−1) < 2.0)”.
